Laboratory results taken from patent publication US8604195B2, “Substituted bicyclic piperidinyl- and piperazinyl-sulfonamides useful to inhibit 11β-hydroxysteroid dehydrogenase type-1” (Merck Sharp & Dohme Corp., priority 2007, dated 2013).

Tests used:
[1] = target: Human 11-β-HSD1 (Homo sapiens, UniProt P28845); test: 11β-HSD1 enzymatic activity, 3H-cortisone SPA, human enzyme; conditions: Human 11-β-HSD1 IC50 (nM), membrane, 125 nM 3H-cortisone, 1 hr room temperature
Procedure: (§1) The reaction was incubated at room temperature for 1 hr before it was stopped by addition of 50 μM buffer containing 20 mM NaPO4 pH 7.5, 30 μM 18β-glycyrrhetinic acid, 1 μg/ml monoclonal anti-cortisol antibody (Biosource) and 2 mg/ml anti-mouse antibody coated scintillation proximity assay (SPA) beads (Amersham Bioscience). The mixture was incubated at room temperature for 2 hrs with vigorous shaking and analyzed on TopCount scintillation counter.

[2] = target: Mouse 11-β-HSD1 (Mus musculus, UniProt P50172); test: 11β-HSD1 enzymatic activity, 3H-cortisone SPA, mouse enzyme; conditions: Mouse 11-β-HSD1 IC50 (nM), membrane, 125 nM 3H-cortisone, 1 hr room temperature
Mouse 11-β-HSD1, sequence (P50172 whole entry): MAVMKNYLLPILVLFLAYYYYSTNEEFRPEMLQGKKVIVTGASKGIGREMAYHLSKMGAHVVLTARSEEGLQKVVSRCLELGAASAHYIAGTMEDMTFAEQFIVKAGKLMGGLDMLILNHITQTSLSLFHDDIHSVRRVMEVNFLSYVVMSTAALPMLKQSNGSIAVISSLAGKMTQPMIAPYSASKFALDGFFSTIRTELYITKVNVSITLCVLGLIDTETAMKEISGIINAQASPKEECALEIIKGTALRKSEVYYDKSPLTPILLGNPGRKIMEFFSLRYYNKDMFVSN
Procedure: as §1

Human 11-β-HSD1, sequence (P28845 whole entry): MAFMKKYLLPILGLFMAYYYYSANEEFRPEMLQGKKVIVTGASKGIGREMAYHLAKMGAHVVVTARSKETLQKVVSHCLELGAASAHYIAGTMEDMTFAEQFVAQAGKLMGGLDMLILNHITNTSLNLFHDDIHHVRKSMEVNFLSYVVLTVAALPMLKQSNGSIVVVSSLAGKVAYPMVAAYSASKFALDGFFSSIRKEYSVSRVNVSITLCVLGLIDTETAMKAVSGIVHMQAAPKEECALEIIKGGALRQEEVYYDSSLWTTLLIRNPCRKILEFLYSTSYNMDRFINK

| Structure (SMILES) | IC50 [1] [nM] | IC50 [2] [nM] |
| --- | --- | --- |
| CC(C)(C)c1ccc(S(=O)(=O)N2C3CCC2CC(Oc2ccc(C#N)cn2)C3)cc1 (single isomer, unassigned) [Compound 5] | > 10000 | 23800 |
| CC(C)(C)c1ccc(S(=O)(=O)N2C3CCC2CC(Oc2ccc(C#N)cn2)C3)cc1 (single isomer, unassigned) [Compound 6] | 413 | 5590 |
| CC(C)(C)c1ccc(S(=O)(=O)N2C3CCC2CC(O)(Cc2ccccc2)C3)cc1 (stereo not drawn) [Compound 15] | 740 | 114 |
| CC(C)(C)c1ccc(S(=O)(=O)N2C3CCC2CC(O)(c2ccccc2)C3)cc1 (stereo not drawn) [Compound 16] | – | 138 |
| CCC(C)(C)c1ccc(S(=O)(=O)N2C[C@@H]3C[C@H]2CN3C)cc1 [Compound 21] | 333 | 258 |
